Consider 16 compounds from patent US9328138B2 (priority 2011, dated 2016).

pKi: −log10 of the molar value. Counter-ions that a name gives are not always drawn.

The target in assay [1] is T1, HCV genotype 1b (BK) NS3 modified enzyme with a R155K mutation (Hepatitis C virus genotype 1b, UniProt P26663, R1181K).
T1 construct: HCV genotype 1b (BK) NS3 modified enzyme
Kind of assay: HCV NS3 protease time-resolved fluorescence (TRF) assay, genotype 1b R155K. To be noted: Ki 1b R155K. The class given is biochemical. How it is done:
(§1) The HCV NS3 protease inhibitory activity of the present compounds may be tested using assays known in the art. One such assay is HCV NS3 protease time-resolved fluorescence (TRF) assay as described below and in International Patent Application Publication No. WO2006/102087. Other examples of such assays are described in e.g., International Patent Application Publication No. WO2005/046712. The assay is performed in a final volume of 100 μl in assay buffer containing 50 mM HEPES, pH 7.5, 150 mM NaCl, 15% glycerol, 0.15% Triton X-100, 10 mM DTT, and 0.1% PEG 8000. NS3 protease is pre-incubated with various concentrations of inhibitors in DMSO for 30 minutes. The reaction is initiated by adding the TRF peptide substrate (final concentration 100 nM). NS3 mediated hydrolysis of the substrate is quenched after 1 hour at room temperature with 100 μl of 500 mM MES, pH 5.5. Product fluorescence is detected using either a VICTOR V2 or FUSION fluorophotometer (Perkin Elmer Life and Analytical Sciences) with excitation at 340 nm and emission at 615 nm with a 400 μs delay. Testing concentrations of different enzyme forms are selected to result in a signal to background ratio (S/B) of 10-30. IC50 values are derived using a standard four-parameter fit to the data. K; values are derived from IC50 values using the following formula, IC50=Ki(1+[S]/Km), Eqn (1), where [S] is the concentration of substrate peptide in the reaction and KM is the Michaelis constant. See Gallinari et al., 1999, Biochem. 38:5620-32; Gallinari et al., 1998, J. Virol. 72:6758-69; Taliani et al., 1996, Anal. Biochem. 240:60-67.
(§2) The HCV NS3 protease inhibitory activity was measured using the protease time-resolved fluorescence (TRF) assay as described below and in International Patent Application Publication No. WO 2006/102087. The assay was performed with HCV genotype 1b (BK) NS3 modified enzyme with a R155K mutation and genotype 3a (3A-1).
(§3) The assay was performed in a final volume of 50 μl in assay buffer containing 50 mM HEPES, pH 7.5, 150 mM NaCl, 15% glycerol, 0.15% TRITON X-100, 10 mM DTT, and 0.1% PEG 8000. NS3 and NS4A protease is pre-incubated with various concentrations of inhibitors in DMSO for 10 minutes. The reaction was initiated by adding the TRF peptide substrate (final concentration 25 nM) and NS3 mediated hydrolysis of the substrate proceeds for 6 hours at room temperature. Product fluorescence is detected using an Envision plate reader (Perkin Elmer) with excitation at 340 nm and emission at 615 nm with a 400 μs delay. Testing concentrations of the enzymes were selected to result in a signal to background ratio (S/B) of 5-20. IC50 values are derived using a standard four-parameter fit to the data.
(§4) NS3 and NS4A protease is pre-incubated with various concentrations of inhibitors in DMSO for 30 minutes. The reaction is initiated by adding the TRF peptide substrate (final concentration 100 nM). NS3 mediated hydrolysis of the substrate is quenched after 1 hour at room temperature with 100 μl of 500 mM MES, pH 5.5. Product fluorescence is detected using either a VICTOR V2 or FUSION fluorophotometer (Perkin Elmer Life and Analytical Sciences) with excitation at 340 nm and emission at 615 nm with a 400 μs delay. Testing concentrations of the enzymes are selected to result in a signal to background ratio (S/B) of 8-30. IC50 values are derived using a standard four-parameter fit to the data. Ki values are derived from IC50 values using the following formula, IC50=Ki(1+[S][…]), Eqn (1), where [S] is the concentration of substrate peptide in the reaction and KM is the Michaelis constant. See Gallinari et al., 1999, Biochem. 38:5620-32; Gallinari et al., 1998, J. Virol. 72:6758-69; and Taliani et al., 1996, Anal. Biochem. 240:60-67. ND means not determined.

Assay [2] addresses HCV NS3 protease genotype 3a (3A-1) (Hepatitis C virus genotype 3a, UniProt Q81258). Nature of the assay: HCV NS3 protease time-resolved fluorescence (TRF) assay, genotype 3a. To be noted: Ki 3a. The assay is classed as biochemical. On the procedure: as §1, §2, §3, §4
Where [3] appears, read: genotype 1b (BK) NS3 R155K, single value.
Where [4] appears, read: first of two values printed in the cell (not explained).
Where [5] appears, read: second of two values printed in the cell (not explained).

As for `C=C[C@@H]1C[C@]1(NC(=O)[C@@H]1C[C@@H]2CN1C(=O)[C@H](C1CCCC1)NC(=O)O[C@]1(C)CCC[C@H]1CCCCCc1c(nc3ccccc3c1O)O2)C(=O)NS(=O)(=O)C1CC1` (single isomer, unassigned) [Example 29], in assay [1] (setting [3]), the pKi (usually the Ki on a negative log10 scale, so that one unit is a factor of ten) was 9.92.

With `CC[C@@H]1C[C@]1(NC(=O)[C@@H]1C[C@@H]2CN1C(=O)[C@H](C1CCCC1)NC(=O)OC1(C)CCCC1CCCCCc1c(nc3ccccc3c1O)O2)C(=O)NS(=O)(=O)C1CC1` (single isomer, unassigned) [Example 32], the pKi in assay [1] (setting [3]) was 9.27; in assay [2], 8.04.

For `C=C[C@@H]1C[C@]1(NC(=O)[C@@H]1C[C@@H]2CN1C(=O)[C@H](C(C)(C)C)NC(=O)O[C@@H]1C[C@H]1CCCCCc1c(nc3ccccc3c1OC1C3COCC1CN(C(=O)OC(C)(C)C)C3)O2)C(=O)NS(=O)(=O)C1(C)CC1` (single isomer, unassigned) [Example 254], the pKi in assay [1] (setting [4]) is 9.94; in assay [1] (setting [5]) it was 8.64; in assay [2], 7.32.

In the case of `C=C[C@@H]1C[C@]1(NC(=O)[C@@H]1C[C@@H]2CN1C(=O)[C@H](C(C)(C)C)NC(=O)O[C@@H]1C[C@H]1CCCCCc1c(nc3ccccc3c1OC1C3COCC1CN(C(=O)OC(C)(C)C)C3)O2)C(=O)NS(=O)(=O)C1(C)CC1` (single isomer, unassigned) [Example 255], the pKi was 9.92 in assay [1] (setting [4]), 8.66 in assay [1] (setting [5]) and 7.23 in assay [2].

On to `C=C[C@@H]1CC1(NC(=O)[C@@H]1C[C@@H]2CN1C(=O)[C@H](C(C)(C)C)NC(=O)O[C@@H]1C[C@H]1CCCCCc1c(nc3ccccc3c1OC1C3CNCC1COC3)O2)C(=O)NS(=O)(=O)C1(C)CC1` (single isomer, unassigned) [Example 258, trifluoroacetate], for which the pKi in assay [1] (setting [4]) was 10.92; in assay [1] (setting [5]), 10.10; in assay [2] it was 8.56.

With `C=C[C@@H]1CC1(NC(=O)[C@@H]1C[C@@H]2CN1C(=O)[C@H](C(C)(C)C)NC(=O)O[C@@H]1C[C@H]1CCCCCc1c(nc3ccccc3c1OC1C3CNCC1COC3)O2)C(=O)NS(=O)(=O)C1(C)CC1` (single isomer, unassigned) [Example 259, trifluoroacetate], the pKi in assay [1] (setting [4]) was 10.52; in assay [1] (setting [5]), 9.46; in assay [2], 8.13.

Turning to `C=C[C@@H]1C[C@]1(NC(=O)[C@@H]1C[C@@H]2CN1C(=O)[C@H](C(C)(C)C)NC(=O)O[C@@H]1C[C@H]1CCCCCc1c(nc3ccccc3c1OC1CC3CCC(C1)N3C(=O)OC(C)(C)C)O2)C(=O)NS(=O)(=O)C1(C)CC1` (single isomer, unassigned) [Example 273], the negative logarithm of the Ki (pKi) in assay [1] (setting [4]) was 10.00; in assay [1] (setting [5]) it was 8.73; in assay [2], 7.17.

In the case of `C=C[C@@H]1C[C@]1(NC(=O)[C@@H]1C[C@@H]2CN1C(=O)[C@H](C(C)(C)C)NC(=O)O[C@@H]1C[C@H]1CCCCCc1c(nc3ccccc3c1OC1CC3CCC(C1)N3)O2)C(=O)NS(=O)(=O)C1(C)CC1` (single isomer, unassigned) [Example 274], the results for the pKi in assay [1] (setting [4]), in assay [1] (setting [5]) and in assay [2] were 10.82, 10.82 and 10.03, respectively.

Consider `C=C[C@@H]1C[C@]1(NC(=O)[C@@H]1C[C@@H]2CN1C(=O)[C@H](C(C)(C)C)NC(=O)O[C@@H]1C[C@H]1CCCCCc1c(nc3ccccc3c1OC1CC3CCC(C1)N3CCOC)O2)C(=O)NS(=O)(=O)C1(C)CC1` (single isomer, unassigned) [Example 276], for which the pKi in assay [1] (setting [4]) was 10.89; in assay [1] (setting [5]) it was 10.72; in assay [2] it was 9.85.

In the case of `C=C[C@@H]1C[C@]1(NC(=O)[C@@H]1C[C@@H]2CN1C(=O)[C@H](C(C)(C)C)NC(=O)O[C@@H]1C[C@H]1CCCCCc1c(nc3ccccc3c1OC1CC3CCC(C1)N3CC)O2)C(=O)NS(=O)(=O)C1(C)CC1` (single isomer, unassigned) [Example 277], the pKi in assay [1] (setting [4]) is 11.10; in assay [1] (setting [5]), 10.89; in assay [2], 10.11.

Turning to `C=C[C@@H]1C[C@]1(NC(=O)[C@@H]1C[C@@H]2CN1C(=O)[C@H](C(C)(C)C)NC(=O)O[C@@H]1C[C@H]1CCCCCc1c(nc3ccccc3c1OC1CC3CCC(C1)N3C(=O)OC(C)(C)C)O2)C(=O)NS(=O)(=O)C1(C)CC1` (single isomer, unassigned) [Example 278], the values for the pKi in assay [1] (setting [4]), in assay [1] (setting [5]) and in assay [2] were 9.07, 7.70 and 6.13, respectively.

Take `C=C[C@@H]1C[C@]1(NC(=O)[C@@H]1C[C@@H]2CN1C(=O)[C@H](C(C)(C)C)NC(=O)O[C@@H]1C[C@H]1CCCCCc1c(nc3ccccc3c1OC1CC3CCC(C1)N3)O2)C(=O)NS(=O)(=O)C1(C)CC1` (single isomer, unassigned) [Example 279, trifluoroacetate]: the results for the pKi in assay [1] (setting [4]), in assay [1] (setting [5]) and in assay [2] were 10.92, 9.84 and 8.59, respectively.

In the case of `C=C[C@@H]1C[C@]1(NC(=O)[C@@H]1C[C@@H]2CN1C(=O)[C@H](C(C)(C)C)NC(=O)O[C@@H]1C[C@H]1CCCCCc1c(nc3ccccc3c1OC1CC3CCC(C1)N3CCOC)O2)C(=O)NS(=O)(=O)C1(C)CC1` (single isomer, unassigned) [Example 280], the pKi in assay [1] (setting [4]) is 10.62; in assay [1] (setting [5]), 9.55; in assay [2], 8.33.

Take `C=C[C@@H]1C[C@]1(NC(=O)[C@@H]1C[C@@H]2CN1C(=O)[C@H](C(C)(C)C)NC(=O)O[C@@H]1C[C@H]1CCCCCc1c(nc3ccccc3c1OC1CC3CCC(C1)N3CC)O2)C(=O)NS(=O)(=O)C1(C)CC1` (single isomer, unassigned) [Example 281]: the negative-log Ki (pKi) in assay [1] (setting [4]) was 10.80; in assay [1] (setting [5]), 9.90; in assay [2] it was 8.90.

`C=C[C@@H]1CC1(NC(=O)[C@@H]1C[C@@H]2CN1C(=O)[C@H](C1CCCCC1)NC(=O)O[C@@H]1C[C@H]1CCCCCc1c(nc3ccccc3c1OC1CCNCC1F)O2)C(=O)NS(=O)(=O)C1(C)CC1` (stereo in doubt) [Example 293, (3S,4R)-4-{[(1aR,5S,8S,10R,22aR)-5-cyclohexyl-8-{[(1R,2S)-2-ethenyl-1-{[(1-methylcyclopropyl)sulfonyl]carbamoyl}cyclopropyl]carbamoyl}-3,6-dioxo-1,1a,3,4,5,6,9,10,18,19,20,21,22,22a-tetradecahydro-8H-7,10-methanocyclopropa[18,19][1,10,3,6]dioxadiazacyclononadecino[11,12-b]quinolin-17-yl]oxy}-3-fluoropiperidinium chloride]: the pKi is 10.54 in assay [1] (setting [4]), 9.86 in assay [1] (setting [5]) and 8.89 in assay [2].

In assay [1] (setting [3]), `C=C[C@@H]1C[C@]1(NC(=O)[C@@H]1C[C@@H]2CN1C(=O)[C@H](C1CCCC1)NC(=O)O[C@]1(C)C[C@H]1CC/C=C/Cc1c(nc3ccccc3c1O)O2)C(=O)NS(=O)(=O)C1CC1` [Example 19, (1aR,5S,8S,10R,19E,22aR)-5-cyclopentyl-N-{(1R,2S)-1-[(cyclopropylsulfonyl)carbamoyl]-2-ethenylcyclopronyl}-17-hydroxy-1a-methyl-3,6-dioxo-1,1a,3,4,5,6,9,10,18,21,22,22a-dodecahydro-8H-7,10-methanocyclopropa[18,19][1,10,3,6]dioxadiazacyclononadecino[11,12-b]quinoline-8-carboxamide] had a pKi of 10.04.
